Laboratory results from PubChem BioAssay (NCI).
Where “and” joins values, the source holds several entries; their conditions need not be identical. Equal entries are not always repeated.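 How tested: cells in 96-well plates exposed to compound for 48 hours at five concentrations. GI50 = concentration required for 50% inhibition of growth. TGI: total growth inhibition.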

How the values were obtained:
Assay in all cases: NCI anticancer screen, dose series, 48 h
SK-MEL-28 melanoma = test system: SK-MEL-28 melanoma
NCI-H522 lung = test system: NCI-H522 lung
HT29 colon = test system: HT29 colon
A549 NSCLC = test system: A549 NSCLC
U251 CNS = test system: U251 CNS
SF-539 CNS = test system: SF-539 CNS
PC-3 prostate = test system: PC-3 prostate
MDA-MB-231 breast = test system: MDA-MB-231 breast
BT-549 breast = test system: BT-549 breast
T-47D breast = test system: T-47D breast

SMILES | TGI (SK-MEL-28 melanoma) | TGI (NCI-H522 lung) [µM] | TGI (HT29 colon) [µM] | TGI (A549 NSCLC) [µM] | TGI (U251 CNS) | TGI (SF-539 CNS) | GI50 (PC-3 prostate) [µM] | TGI (PC-3 prostate) [µM] | GI50 (SK-MEL-28 melanoma) | GI50 (NCI-H522 lung) | GI50 (MDA-MB-231 breast) [µM] | TGI (MDA-MB-231 breast) [µM] | GI50 (HT29 colon) [µM] | GI50 (A549 NSCLC) | GI50 (U251 CNS) [µM] | GI50 (SF-539 CNS) | GI50 (BT-549 breast) [µM] | TGI (BT-549 breast) [µM] | GI50 (T-47D breast) [µM] | TGI (T-47D breast) [µM]
CCCCCCCCCCCCCCCCCC(=O)OCC(C[As](=O)(O)O)OC(=O)CCCCCCCCCCCCCCCCC (stereo not given) | > 100 µM | > 100 | > 100 | > 100 | > 100 µM | > 100 µM | – | – | – | – | – | – | – | – | – | – | – | – | – | –
NC(=O)Nc1c([N+](=O)[O-])cc(C(F)(F)F)cc1[N+](=O)[O-] | > 100 µM | > 100 | > 100 | > 100 | > 100 µM | > 100 µM | – | – | – | – | – | – | – | – | – | – | – | – | – | –
COc1cc(C2CC(c3ccccc3)=NN2C(C)=O)cc(OC)c1OC (stereo not given) | > 100 µM | > 100 | > 100 | > 100 | > 100 µM | 17.8 µM | 3.97 | > 100 | 6.48 µM | 5.53 µM | 7.68 | > 100 | 2.57 | 6.63 µM | 3.93 | 3.06 µM | 6.37 | > 100 | 5.33 | > 100
O=C1CCC(N2Cc3c(C#CCCCNC(=O)c4cc5c(o4)C(=O)c4ccccc4C5=O)cccc3C2=O)C(=O)N1 (stereo not given) | 8.83 µM | 4.61 | 39.9 | 32.9 | 8.07 µM | 5.26 µM | 2.95 | 56.2 | 3.53 µM | 1.98 µM | 2.92 | 19.6 | 5.92 | 12.6 µM | 2.87 | 2.27 µM | 1.73 | 3.17 | 3.16 | 11.9
CC1=NC(C(C)C)C(=O)O1 (stereo not given) | > 100 µM | > 100 | > 100 | – | > 100 µM | > 100 µM | – | – | – | – | – | – | – | – | – | – | – | – | – | –
CN(C)C1=NC2=S(SC(Nc3ccccc3)=N2)S1 (stereo not given) | 56.2 µM | 60.2 | > 100 | 47.2 | > 100 µM | 60.6 µM | – | – | – | – | – | – | – | – | – | – | – | – | – | –
CCCCCCCCCCCCCCCCCC(=O)OCC(COC1OC(CS(=O)(=O)O)C(O)C(O)C1O)OC(=O)CCCCCCCCCCCCCCCCC (stereo not given) | > 100 µM | > 100 | > 100 | > 100 | > 100 µM | > 100 µM | – | > 100 | – | – | – | > 100 | – | – | – | – | – | – | – | > 100
c1ccc(CN2CCCCC(Sc3ccccc3)CC2)cc1 (stereo not given) | > 100 µM | – | 33.5 | > 100 | 31.7 µM | 77.4 µM | – | – | – | – | – | – | – | – | – | – | – | – | – | –
CCC[CH2][Sn]1([CH2]CCC)[O]CC(CN2CCOCC2)[O]1 (stereo not given) | 11.3 µM | 2.55 | 23.6 | 32.2 | 11 µM | 8.59 µM | – | – | 2.89 µM | 1.12 µM | – | – | 9.65 | 18.3 µM | 3.05 | 2.96 µM | – | – | – | –
COC(=O)C1=C(c2ccc3c(c2)OCO3)OC(c2ccc3c(c2)OCO3)C1 (stereo not given) | > 100 µM | – | > 100 | > 100 | > 100 µM | > 100 µM | – | – | – | – | – | – | – | – | – | – | – | – | – | –
COC(=O)C1=C(CS(=O)c2ccc([N+](=O)[O-])cc2[N+](=O)[O-])ON(C)C1c1ccccc1 (stereo not given) | > 100 µM | 32.1 | 55.2 | > 100 | > 78.6 µM | 56.2 µM | – | – | – | – | – | – | – | – | – | – | – | – | – | –
CCCCCNC(=O)c1c(O)[nH]c(=S)[nH]c1=O | > 100 µM | > 100 | > 100 | > 100 | > 100 µM | > 100 µM | – | – | – | – | – | – | – | – | – | – | – | – | – | –
O=C1OC(c2ccccc2)=N/C1=C\c1cc(Cl)ccc1Cl | > 100 µM | > 100 | > 100 | > 100 | > 100 µM | > 100 µM | – | – | – | – | – | – | – | – | – | – | – | – | – | –
CSc1nc(C)c(Br)c(=O)n1C1OC(COC(C)=O)C(OC(C)=O)C(OC(C)=O)C1OC(C)=O (stereo not given) | > 100 µM and 57 µM | > 100 | > 100 | > 100 | > 100 µM and 49.3 µM | > 80.2 µM and 34.4 µM | – | – | > 100 µM and 21 µM | > 100 µM and 30.9 µM | – | > 100 | – | > 100 µM and 28.5 µM | – | > 52.8 µM and 18.6 µM | – | – | – | > 100
NC(=O)CCC(NC(=O)Cc1ccccc1)C(=O)O (stereo not given) (tested in a mixture with another compound) | > 8130 µM | > 8130 | > 8130 | > 8130 | > 8130 µM | > 8130 µM | – | – | – | – | – | – | – | – | – | – | – | – | – | –
COC(=O)CS(=O)c1ccccc1 (stereo not given) | > 100 µM | 30.1 | > 100 | > 100 | 98.6 µM | 44.1 µM | – | – | – | – | – | – | – | – | – | – | – | – | – | –
CCOC(=O)c1c(Cl)c2c(n1Cc1cccc(OC)c1)-c1oncc1CC2 | > 100 µM | 6.73 | 15.1 | > 100 | > 100 µM | 10.6 µM | 5.4 | > 100 | 4.89 µM | 0.351 µM | 4.61 | > 100 | 0.799 | 5.16 µM | 4.75 | 2.12 µM | – | – | 4.41 | > 100
Cc1cc(C)c2nc3nc(C)cc(C)c3c(N)c2c1 | 27 µM | 22.6 | 13.6 | > 100 | 26.1 µM | 14.6 µM | – | – | 12.6 µM | 5.46 µM | 5.17 | 28.6 | 2.49 | 4.34 µM | 4.3 | 4.15 µM | 11 | 31.7 | 5.89 | 34.2
N#C/C(=C1C=C/C(=N\O)C(Cl)=C\1)c1ccccc1 | 21.8 µM | 7.92 | 10.9 | > 100 | – | 5 µM | 0.688 | 11.7 | 6.77 µM | 1.98 µM | 2.26 | 6.7 | 3.35 | 3.27 µM | – | 1.34 µM | 4.36 | 16.2 | 0.6 | 11.3
O=C(c1nc2ccc(Cl)cc2[nH]c1=O)C(O)c1ccc2c(c1)OCO2 (stereo not given) | > 100 µM | > 100 | > 100 | > 100 | > 100 µM | – | – | – | – | – | – | – | – | – | – | – | – | – | – | –
CC(=O)c1ccc(NC(=O)C(=O)C(C(=O)c2ccc(Cl)c(Cl)c2)C2OC(=O)c3ccccc32)cc1 (stereo not given) | – | 22.1 | 67.7 | 58.2 | 23 µM | – | – | – | – | – | – | – | – | – | – | – | – | – | – | –
COC1OC(COS(=O)(=O)c2ccc(C)cc2)C(O)C(OS(=O)(=O)c2ccc(C)cc2)C1OS(=O)(=O)c1ccc(C)cc1 (stereo not given) | > 100 µM | > 100 | > 100 | > 100 | > 100 µM | > 100 µM | – | – | – | – | – | – | – | – | – | – | – | – | – | –
